Measurements: patent publication US5145872A, “Peptides with pharmaceutical activity” (Zambon Group, S.p.A., priority 1988, dated 1992)
Values joined by “and” are separate entries in the source; they are usually repeats but may differ in a detail not shown here. Equal entries are not always repeated. “Also recorded” adds a separate entry of the source.

What was measured:
[1] = tested on: methionine-enkephalin-induced analgesia; assay: Potentiation of methionine-enkephalin-induced analgesia (hot plate test), product given i.v.; type: in vivo, Male Swiss mice; settings: for Reaction time areas, Product: product alone
Description: (§1) Male Swiss mice (CD Charles River) weighing 22-24 g received intracerebroventricular (i.c.v.) injection of methionineenkephalin as described by Haley and Mc Cormick [Br. J. Pharmacol., 12, 12-15, (1957)].
(§2) Methionine-enkephalin was dissolved in distilled water and microinjected in a volume of 10 μl/mouse and in a dose analgesic in less than 30% of animals. The dose (10.25 or 50 μg/mouse) was chosen at the beginning of each experience depending on each batch's analgesic activity.
(§3) The antinociceptive effect was tested by the hot plate test as described by Eddy and Leimbach [(J. Pharmacol. Exptl. Therap., 107, 385-393, (1953)]. The time in seconds from contact with the plate (51.5° C.) to paw licking or Jumping accurrence was recorded as the response latency.
(§4) Animals were removed as soon as they reacted or after 30 seconds if they at 3, 6, 9, 12 and 15 minutes after the i.c.v. treatment and the latency times measured were used to calculate the reaction time areas. At first the compounds of formula I and Bestatin were administered simultaneously to methionine-enkephalin (dissolved in the same solution) by intracerebroventricular treatment to evaluate their activity without any interference due to absorbtion or diffusion through the blood-brain barrier.
Then the compounds of formula I and Bestatin were tested after intravenous (i.v.) administration to study their diffusion across blood-brain barrier.
The administration i.v. of the compounds of formula I and of Bestatin was simultaneous to methionine-enkephalin administration i.c.v.

[2] = tested on: methionine-enkephalin-induced analgesia; assay: Potentiation of methionine-enkephalin-induced analgesia (hot plate test), product given i.c.v.; type: in vivo, Male Swiss mice; settings: for Reaction time areas, Product Met-enk: product 0.16 μmoles i.c.v. together with Met-enk i.c.v., hot plate; for Reaction time areas, Product: product alone, 0.16 μmoles i.c.v., hot plate 51.5° C., 3-15 min
Description: as §1, §2, §3, §4

[3] = product 0.05 mmoles/kg i.v. simultaneous to Met-enk i.c.v.
[4] = product 0.08 mmoles/kg i.v. simultaneous to Met-enk i.c.v.

Molecule | Reaction time areas, Product Met-enk [1, 3] | Reaction time areas, Product Met-enk [1, 4] | Reaction time areas, Product ([1]; 0.05 mmoles/kg i.v.) | Reaction time areas, Product ([1]; 0.08 mmoles/kg i.v.) | Reaction time areas, Product Met-enk [2] | Reaction time areas, Product [2] | Activity of enhancing analgesia induced by opioids when administered by intravenous route ([1]; intravenous route, in words) | Reaction time areas, Met-enk ([2]; Met-enk alone i.c.v., control group of each Table 1 experiment) | Reaction time areas, Met-enk ([1]; Met-enk alone i.c.v., control group of each Table 2 experiment)
CS(=O)(=O)c1ccc(C[C@@H](N)[C@H](O)C(=O)NC2(C(=O)O)CCCC2)cc1 [Compound 2, 1-[(2S,3R)-3-amino-2-hydroxy-4-(4-methylsulfonyl-phenyl)-butanoyl]-amino-1-cyclopentanecarboxylic acid] | 243 ± 15.9 | 233 ± 10.1 | 190 ± 7.8 | 191 ± 8.5 |  |  |  |  | 
CC(C)C[C@H](NC(=O)[C@@H](O)[C@H](N)Cc1ccccc1)C(=O)O [Bestatin, [(2S,3R)-3-amino-2-hydroxy-4-phenyl-butanoyl]-L-leucine] | 202 ± 6.9 | 212 ± 10.0 | 173 ± 3.7 | 182 ± 8.3 | 268 ± 11.3 | 222 ± 13.3 | practically inactive; also recorded: not active |  | 
Methionine-enkephalin [Met-enk] |  |  |  |  |  |  |  | 207 ± 15.6 and 173 ± 11.2 and 188 ± 4.7 | 199 ± 14.0 and 197 ± 16.7 and 208 ± 8.3 and 200 ± 6.1 and 197 ± 9.7
CS(=O)(=O)c1ccc(C[C@@H](N)[C@H](O)C(=O)NC2(C(=O)O)CCC2)cc1 [Compound 4, 1-[(2S,3R)-3-amino-2-hydroxy-4-(4-methylsulfonyl-phenyl)-butanoyl]-amino-1-cyclobutanecarboxylic acid] |  |  |  |  | 290 ± 17.1 | 179 ± 9.9 |  |  | 
